Converted amounts (≈) assume the structure as drawn. Read-outs that look alike come from different tables or passages of the source.
Experiments:
Format in all cases: cell-based
[1] = MIC by agar dilution, Brucella HK agar, 491 anaerobic clinical isolates; details: clinical isolates of Bacteroides spp., Prevotella bivia and other Prevotella spp.
[2] = tested on: Campylobacter jejuni; assay: MIC by agar dilution (NCCLS M7-A4), 5% sheep blood, microaerophilic 48 h; details: Campylobacter jejuni (n=91)
[3] = tested on: Gram positive anaerobic and facultative anaerobic pathogens; assay: microbe, parasite or virus in culture
[4] = tested on: Aeromonas spp.; assay: MIC by agar dilution (NCCLS M7-A4), 288 enteropathogenic isolates, gemifloxacin and 15 other antimicrobials; details: Aeromonas spp. N= 16
[5] = tested on: Streptococcus pneumoniae; assay: MIC by two-fold serial agar dilution, Sensitivity Disk agar-N (Kitasato isolates); details: Streptococcus pneumoniae; for MIC: read-out: MIC Range; for MIC50: read-out: MIC50
[6] = tested on: Haemophilus influenzae; assay: MIC by agar dilution (NCCLS), 411 isolates Buenos Aires 1998-99; details: Haemophilus influenzae (n = 65)
[7] = tested on: Moraxella catarrhalis; assay: as above; details: Moraxella catarrhalis (n = 59)
[8] = tested on: Enterobacter aerogenes; assay: MIC by NCCLS broth microdilution, 1100 Japanese clinical isolates 1997-1998; details: Enterobacter aerogenes (n=35)
[9] = tested on: Moraxella catarrhalis; assay: MIC by NCCLS reference broth microdilution, 450 respiratory tract pathogens

N[C@@H]1[C@H]2CN(c3nc4c(cc3F)c(=O)c(C(=O)O)cn4-c3ccc(F)cc3F)C[C@@H]12 [Trovafloxacin, trovafloxacin]
MIC90 [1]: 1 to 8 µg/mL (≈ 2.4 to 19.2 µM) | % Susceptible [2]: 31.86% | MIC50 [2]: 8 µg/mL (≈ 19.2 µM) | MIC90 [2]: 8 µg/mL (≈ 19.2 µM) | MIC Range [2]: ≤0.015 to 32 µg/mL | MIC ([3]; Bifidobacterium adolescentis, ATCC15703): 1 µg/mL (≈ 2.4 µM) | MIC ([3]; Bifidobacterium bifidum, JCM1255): 4 µg/mL (≈ 9.61 µM) | MIC ([3]; Bifidobacterium breve, ATCC15700): 4 µg/mL (≈ 9.61 µM) | MIC ([3]; Bifidobacterium longum, ATCC15707): 4 µg/mL (≈ 9.61 µM) | MIC ([3]; Bifidobacterium pseudolongum, ATCC25526): 4 µg/mL (≈ 9.61 µM) | MIC ([3]; Clostridioides difficile): 1 µg/mL (≈ 2.4 µM) | MIC ([3]; Clostridium perfringens, ATCC13124): 0.125 µg/mL (≈ 0.3 µM) | MIC ([3]; Clostridium septicum, ATCC12464): 0.125 µg/mL (≈ 0.3 µM) | MIC ([3]; Cutibacterium acnes, ATCC11828): 1 µg/mL (≈ 2.4 µM) | MIC ([3]; Eggerthella lenta, ATCC25559): 0.5 µg/mL (≈ 1.2 µM) | MIC ([3]; Finegoldia magna, ATCC29328): 0.125 µg/mL (≈ 0.3 µM) | MIC ([3]; Gemella morbillorum, ATCC27824): 0.25 µg/mL (≈ 0.6 µM) | MIC ([3]; Lacticaseibacillus casei, JCM1134): 0.06 µg/mL (≈ 0.144 µM) | MIC ([3]; Lactiplantibacillus plantarum, JCM1149): 4 µg/mL (≈ 9.61 µM) | MIC ([3]; Lactobacillus acidophilus, JCM1132): 4 µg/mL (≈ 9.61 µM) | MIC ([3]; Levilactobacillus brevis, JCM1059): 1 µg/mL (≈ 2.4 µM) | MIC ([3]; Ligilactobacillus salivarius, JCM1231): 0.125 µg/mL (≈ 0.3 µM) | MIC ([3]; Limosilactobacillus reuteri, JCM1112): 1 µg/mL (≈ 2.4 µM) | MIC ([3]; Limosilactobacillus reuteri, JCM1173): 1 µg/mL (≈ 2.4 µM) | MIC ([3]; Paraclostridium sordellii, ATCC9714): 0.25 µg/mL (≈ 0.6 µM) | MIC ([3]; Parvimonas micra): 0.06 µg/mL (≈ 0.144 µM) | MIC ([3]; Peptoniphilus asaccharolyticus): 0.5 µg/mL (≈ 1.2 µM) | MIC ([3]; Peptoniphilus indolicus): 0.125 µg/mL (≈ 0.3 µM) | MIC ([3]; Peptostreptococcus anaerobius, ATCC27337): 0.06 µg/mL (≈ 0.144 µM) | MIC ([3]; Schaalia odontolytica): 4 µg/mL (≈ 9.61 µM) | MIC ([3]; Staphylococcus saccharolyticus, ATCC14953): 0.06 µg/mL (≈ 0.144 µM) | MIC ([3]; Streptococcus constellatus, ATCC27823): 0.125 µg/mL (≈ 0.3 µM) | MIC ([3]; Streptococcus intermedius, ATCC27335): 0.125 µg/mL (≈ 0.3 µM) | MIC ([3]; Thomasclavelia ramosa, ATCC25582): 0.5 µg/mL (≈ 1.2 µM) | MIC (mg/L) Range [4]: ≤0.015 to 0.25 mg/L | MIC ([4]; read-out: MIC (mg/L) 50%): ≤ 0.015 mg/L | MIC ([4]; read-out: MIC (mg/L) 90%): 0.03 mg/L (≈ 0.0721 µM) | MIC90 [5]: 0.125 µg/mL (≈ 0.3 µM) | MIC90 ([5]; 18 h, Ciprofloxacin-resistant (21), ciprofloxacin MIC ≥8 µg/ml, read-out: MIC90): 4 µg/mL (≈ 9.61 µM) | MIC ([5]; 18 h, Ciprofloxacin-susceptible (94)): 0.031 to 0.25 µg/mL (≈ 0.0745 to 0.6 µM) | MIC ([5]; 18 h, Erythromycin-resistant (37)): 0.063 to 2 µg/mL (≈ 0.151 to 4.8 µM) | MIC ([5]; 18 h, Minocycline-resistant (37)): 0.063 to 2 µg/mL (≈ 0.151 to 4.8 µM) | MIC ([5]; 18 h, Penicillin-resistant (19)): 0.031 to 0.25 µg/mL (≈ 0.0745 to 0.6 µM) | MIC ([5]; 18 h): 0.125 to 4 µg/mL (≈ 0.3 to 9.61 µM) | MIC50 ([5]; Ciprofloxacin-resistant (21)): 2 µg/mL (≈ 4.8 µM) | MIC50 ([5]; Ciprofloxacin-susceptible (94)): 0.063 µg/mL (≈ 0.151 µM) | MIC50 ([5]; Erythromycin-resistant (37)): 0.063 µg/mL (≈ 0.151 µM) | MIC90 ([5]; Erythromycin-resistant (37), read-out: MIC90): 0.25 µg/mL (≈ 0.6 µM) | MIC50 ([5]; Minocycline-resistant (37)): 0.063 µg/mL (≈ 0.151 µM) | MIC90 ([5]; Minocycline-resistant (37), read-out: MIC90): 0.25 µg/mL (≈ 0.6 µM) | MIC50 ([5]; Penicillin-resistant (19)): 0.063 µg/mL (≈ 0.151 µM) | MIC90 ([5]; Penicillin-resistant (19), read-out: MIC90): 0.25 µg/mL (≈ 0.6 µM) | MIC90 [6]: 0.03 µg/mL (≈ 0.0721 µM) | MIC Range [6]: ≤0.004 to 0.5 µg/mL | MIC Range [7]: ≤0.004 to 0.03 µg/mL | MIC90 ([7]; read-out: MIC90): 0.016 µg/mL (≈ 0.0384 µM) | MIC Range [8]: ≤0.008 to 0.125 µg/mL | MIC50 ([8]; Klebsiella aerogenes): 0.032 µg/mL (≈ 0.0769 µM) | MIC90 ([8]; Klebsiella aerogenes): 0.063 µg/mL (≈ 0.151 µM) | MIC ([9]; Moraxella catarrhalis (n = 50)): 0.00375 to 0.06 µg/mL (≈ 0.00901 to 0.144 µM) | MIC50 ([9]; Moraxella catarrhalis (n = 50)): 0.015 µg/mL (≈ 0.036 µM) | MIC90 ([9]; Moraxella catarrhalis (n = 50)): 0.06 µg/mL (≈ 0.144 µM) | MIC ([9]; β-lactamase negative (n = 13)): 0.00375 to 0.06 µg/mL (≈ 0.00901 to 0.144 µM) | MIC50 ([9]; β-lactamase negative (n = 13)): 0.0075 µg/mL (≈ 0.018 µM)

Source: EP1561465A2, “Methods of use of fluoroquinolone compounds against bacteria” (LG Life Sciences, Ltd., priority 1999, dated 2001)
